Values quoted from earlier work, collected in patent US8586760B2, “Aminothiazole modulators of beta-3-adrenoreceptor” (Auspex Pharmaceuticals, Inc., priority 2009, dated 2013).

Experiments:
[1] = molecular target: CYP3A4 (Homo sapiens, UniProt P08684)
[2] = molecular target: CYP2D6 (Homo sapiens, UniProt P10635)
[3] = poor metabolizers compared to extensive metabolizers

Sequence of CYP2D6 (P10635 whole entry): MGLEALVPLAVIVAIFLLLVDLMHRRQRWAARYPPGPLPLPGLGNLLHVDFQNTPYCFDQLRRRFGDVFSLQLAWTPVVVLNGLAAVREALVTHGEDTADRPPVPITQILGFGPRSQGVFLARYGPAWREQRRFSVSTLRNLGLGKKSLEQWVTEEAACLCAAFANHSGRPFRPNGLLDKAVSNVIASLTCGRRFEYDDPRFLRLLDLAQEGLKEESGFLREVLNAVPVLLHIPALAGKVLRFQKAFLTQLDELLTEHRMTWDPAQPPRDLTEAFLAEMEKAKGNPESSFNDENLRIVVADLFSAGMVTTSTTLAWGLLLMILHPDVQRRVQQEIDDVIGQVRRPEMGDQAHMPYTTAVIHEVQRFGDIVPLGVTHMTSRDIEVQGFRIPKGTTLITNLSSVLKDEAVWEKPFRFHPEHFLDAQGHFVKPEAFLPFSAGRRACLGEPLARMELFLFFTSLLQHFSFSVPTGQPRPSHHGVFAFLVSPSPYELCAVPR
Sequence of CYP3A4 (P08684 whole entry): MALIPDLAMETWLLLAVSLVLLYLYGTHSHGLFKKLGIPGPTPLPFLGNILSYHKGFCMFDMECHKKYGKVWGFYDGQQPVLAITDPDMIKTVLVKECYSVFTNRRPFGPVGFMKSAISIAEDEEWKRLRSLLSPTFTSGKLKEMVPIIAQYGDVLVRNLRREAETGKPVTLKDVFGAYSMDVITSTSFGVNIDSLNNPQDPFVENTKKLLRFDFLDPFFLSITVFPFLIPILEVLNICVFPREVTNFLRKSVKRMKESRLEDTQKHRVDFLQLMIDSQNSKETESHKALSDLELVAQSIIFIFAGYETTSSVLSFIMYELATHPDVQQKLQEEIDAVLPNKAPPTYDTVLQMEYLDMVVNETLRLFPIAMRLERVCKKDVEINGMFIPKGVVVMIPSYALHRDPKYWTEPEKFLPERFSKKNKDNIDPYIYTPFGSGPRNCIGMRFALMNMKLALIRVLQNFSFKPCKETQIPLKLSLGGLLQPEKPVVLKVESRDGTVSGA

metabolism by CYP3A4 [1]: oxidative cleavage
metabolism by CYP2D6 [2]: oxidative cleavage
Intersubject variability (poor metabolizers): generally higher
Mean Cmax [3]: slightly higher
mean AUC [3]: slightly higher
t1/2 [3]: longer
Structure (SMILES): Nc1nc(CC(=O)Nc2ccc(CCNC[C@H](O)c3ccccc3)cc2)cs1 [Mirabegron, 2-amino-N-[4-[2-[[(2R)-2-hydroxy-2-phenylethyl]amino]ethyl]phenyl]-4-thiazoleacetamide]
